Converted amounts (≈) assume the structure as drawn.
Experiments:
Format in all cases: functional
[1] = tested on: Mycobacterium tuberculosis; assay: Antimycobacterial activity against Mycobacterium tuberculosis strain resistant to ethambutol (EMB)
[2] = tested on: Mycobacterium tuberculosis; assay: Antimycobacterial activity against Mycobacterium tuberculosis strain resistant to kanamycin (KM)
[3] = tested on: Mycobacterium tuberculosis; assay: Antimycobacterial activity against Mycobacterium tuberculosis strain resistant to pyrazinamide (PZA)
[4] = tested on: Mycobacterium tuberculosis; assay: Antimycobacterial activity against Mycobacterium tuberculosis strain resistant to isoniazid (INH)
[5] = tested on: Mycobacterium tuberculosis; assay: Antimycobacterial activity against Mycobacterium tuberculosis strain resistant to cycloserine (CS)
[6] = tested on: Mycobacterium tuberculosis; assay: Antimycobacterial activity against Mycobacterium tuberculosis strain resistant to thiacetazone (TAC)
[7] = tested on: Mycobacterium tuberculosis; assay: Antimycobacterial activity against Mycobacterium tuberculosis strain resistant to para-aminosalicilyc acid (PAS)
[8] = tested on: Mycobacterium tuberculosis; assay: Antimycobacterial activity against Mycobacterium tuberculosis strain resistant to rifampin (RMP)
[9] = tested on: Mycobacterium tuberculosis; assay: Antimycobacterial activity against Mycobacterium tuberculosis strain resistant to ethionamide (ETA)

Compound: CC(=O)Nc1ccc(S(=O)(=O)n2cnc3c(S)ncnc32)cc1
- MIC [1]: 6.25 µg/mL (≈ 17.9 µM)
- MIC [2]: 12.5 µg/mL (≈ 35.8 µM)
- MIC [3]: 6.25 µg/mL (≈ 17.9 µM)
- MIC [4]: 12.5 µg/mL (≈ 35.8 µM)
- MIC [5]: 6.25 µg/mL (≈ 17.9 µM)
- MIC [6]: 6.25 µg/mL (≈ 17.9 µM)
- MIC [7]: 6.25 µg/mL (≈ 17.9 µM)
- MIC [8]: 12.5 µg/mL (≈ 35.8 µM)
- MIC [9]: 25 µg/mL (≈ 71.6 µM)

Compound: CO[C@H]1/C=C/O[C@@]2(C)Oc3c(C)c(O)c4c(O)c(c(/C=N/N5CCN(C)CC5)c(O)c4c3C2=O)NC(=O)/C(C)=C\C=C\[C@H](C)[C@H](O)[C@@H](C)[C@@H](O)[C@@H](C)[C@H](OC(C)=O)[C@@H]1C [RIFAMPIN]
- MIC [1]: 0.125 µg/mL (≈ 0.152 µM)
- MIC [2]: 0.125 µg/mL (≈ 0.152 µM)
- MIC [3]: 0.125 µg/mL (≈ 0.152 µM)
- MIC [4]: 0.125 µg/mL (≈ 0.152 µM)
- MIC [5]: 0.125 µg/mL (≈ 0.152 µM)
- MIC [6]: 0.125 µg/mL (≈ 0.152 µM)
- MIC [7]: 0.125 µg/mL (≈ 0.152 µM)
- MIC [8]: > 8 µg/mL
- MIC [9]: 0.125 µg/mL (≈ 0.152 µM)

Compound: O=[N+]([O-])c1ccc(Sn2cnc3c(S)ncnc32)cc1
- MIC [1]: 0.78 µg/mL (≈ 2.55 µM)
- MIC [2]: 1.56 µg/mL (≈ 5.11 µM)
- MIC [4]: 6.25 µg/mL (≈ 20.5 µM)
- MIC [8]: 0.78 µg/mL (≈ 2.55 µM)

Compound: CN(C)S(=O)(=O)n1cnc2c(=S)[nH]cnc21
- MIC [1]: 3.13 µg/mL (≈ 12.1 µM)
- MIC [2]: 6.25 µg/mL (≈ 24.1 µM)
- MIC [3]: 3.13 µg/mL (≈ 12.1 µM)
- MIC [4]: 6.25 µg/mL (≈ 24.1 µM)
- MIC [5]: 3.13 µg/mL (≈ 12.1 µM)
- MIC [6]: 3.13 µg/mL (≈ 12.1 µM)
- MIC [7]: 3.13 µg/mL (≈ 12.1 µM)
- MIC [8]: 6.25 µg/mL (≈ 24.1 µM)
- MIC [9]: 12.5 µg/mL (≈ 48.2 µM)

Compound: Nc1cccc(S(=O)(=O)n2cnc3c(S)ncnc32)c1
- MIC [1]: 12.5 µg/mL (≈ 40.7 µM)
- MIC [2]: 12.5 µg/mL (≈ 40.7 µM)
- MIC [3]: 12.5 µg/mL (≈ 40.7 µM)
- MIC [4]: 12.5 µg/mL (≈ 40.7 µM)
- MIC [5]: 12.5 µg/mL (≈ 40.7 µM)
- MIC [6]: 12.5 µg/mL (≈ 40.7 µM)
- MIC [7]: 12.5 µg/mL (≈ 40.7 µM)
- MIC [8]: 12.5 µg/mL (≈ 40.7 µM)
- MIC [9]: 50 µg/mL (≈ 163 µM)

Compound: O=S(=O)(c1ccc(Cl)cc1)n1cnc2c(S)ncnc21
- MIC [1]: 6.25 µg/mL (≈ 19.1 µM)
- MIC [2]: 12.5 µg/mL (≈ 38.3 µM)
- MIC [3]: 12.5 µg/mL (≈ 38.3 µM)
- MIC [4]: 12.5 µg/mL (≈ 38.3 µM)
- MIC [5]: 6.25 µg/mL (≈ 19.1 µM)
- MIC [6]: 6.25 µg/mL (≈ 19.1 µM)
- MIC [7]: 6.25 µg/mL (≈ 19.1 µM)
- MIC [8]: 12.5 µg/mL (≈ 38.3 µM)
- MIC [9]: 25 µg/mL (≈ 76.5 µM)
